Test results from patent US11339192B2, “Bicyclic peptidyl inhibitors” (priority 2017, dated 2022).
Where two headings read alike, the source gives them in different places. Numbered stars: 1 amine (or outer) side, 2 acyl side, 3 side chain; on linkers, the order of the positions; unused ones are H or OH. Bridge positions count the residues as written; N and C are the ends. Square brackets hold non-standard residues; d marks the D form. Peptide text beside a SMILES is read from it. Trimesoyl = O=C(c1cc(C(=O)[*:2])cc(C(=O)[*:3])c1)[*:1]; 2Nal = N[C@@H](Cc1ccc2ccccc2c1)C(=O)O; Dap = NC[C@H](N)C(=O)O; βAla = NCCC(=O)O

Columns and labels:
[1] = Proteolytic stability in human serum (analytical HPLC)
Procedure: The proteolytic stability of peptide 7 was assessed by incubation in human serum at 37° C. and quantitation of the remaining peptide as a function of time by analytical HPLC.

[2] = system: HeLa cells; assay: Cellular uptake of FITC-labeled peptides by flow cytometry; settings: for Permeability (%), cellular uptake efficiency: FITC-labeled peptide 5 μM, 2 h, relative to CPP1 (100%); for Permeability (%), cellular uptake efficiency / cellular entry efficiency (in words): HeLa cells; for cellular entry efficiency (in words): flow cytometry
Procedure: (§1) For flow cytometry analysis, HeLa cells were seeded into 12-well plates (1.5×10^5 cells per well) 24 hours before treatment. The next day, 5 μM FITC-labeled peptide in DMEM containing 10% FBS was added to each well and allowed to incubate at 37° c. for 2 hours. […] This washing process was repeated once to remove any free compound and left over trypsin. The washed pellet was resuspended in DPBS with 1% FBS and analyzed on a BD LSR II flow cytometer. Data presented were the mean±SD of three independent experiments.

[3] = system: HeLa cells
Procedure: as §1

[4] = target: T1, NEMO-IKKβ interaction (Homo sapiens, UniProt Q9Y6K9); assay: HTRF assay of inhibition of the NEMO-IKKβ interaction; assay type: binding; settings: for NEMO-binding affinity on Ala substitution (in words): alanine scan of peptide 7; for fold lower NEMO-binding affinity / potency: relative to peptide 7
T1 construct: cells were transformed with a pGEX4T3-NEMO(1-196) plasmid; made in house; host or cells: Escherichia coli BL21(DE3)
Procedure: Recombinant GST-NEMO (20 nM), biotin-IKKβKK/RR(701-745) (50 nM), streptavidin labeled with d2 acceptor (2.5 μg/mL), anti-GST monoclonal antibody labeled with Tb donor (2.5 μg/mL), and varying concentrations of peptide (O-100 μM) were mixed in PBS containing 1 mM TCEP and 0.01% Triton X-100 (total volume 20 μL) in a 384-well plate. […] The HTRF signals were measured on a Tecan Infinite M1000 Pro microplate reader and plotted as a function of the peptide concentration. The data was analyzed using GraphPad Prism 6.0 and IC50 values were obtained by fitting the data to the dose-response inhibition curves. Data presented were the mean±SD of three independent experiments.
Expression of GST-NEMO was induced by the addition of isopropyl β-D-1-thiogalactopyranoside (150 μM final concentration). After five hours at 30° C., the cells were harvested by centrifugation. The cell pellet was suspended in 40 mL of lysis buffer (50 mM Tris-HCl, 100 mM NaCl, 0.5 mM MgCl2, 5 mM O-mercaptoethanol, 0.1% Triton-X-100, pH 8.0), 100 μg/mL lysozyme, 100 μL of DNAse I (New England BioLabs), and 100 μL of Halt Protease Inhibitor Cocktail (EDTA-free) (Thermo Scientific). This mixture was stirred at 4° C. for 30 min and briefly sonicated (2×10 s pulses). The crude lysate was centrifuged to yield a clear supernatant, which was directly loaded onto a glutathione-Sepharose 4B column (GE Healthcare). The bound protein was eluted from the column with 10 mM glutathione in 50 mM Tris-HCl (pH 8.0), concentrated to 0.5 mL with the use of Amicon Ultra-15 centrifugal filter units (MWCO 10 kDa), and dialyzed against PBS before flash freezing.
His-thx-IKKbKK/RR(701-745) was similarly expressed in E. coli BL21 (DE3) cells and purified by affinity chromatography using a HisTrap FF column (GE Healthcare). The fusion protein was eluted with 50 mM Tris-HCl (pH 8.0), 300 mM NaCl, 250 mM imidazole, 2 mM O-mercaptoethanol and treated with TEV protease (150 units for 1 mg of fusion protein) for 16 hours at 4° C. to remove the thioredoxin (thx). The resulting protease digestion mixture was reloaded onto the HisTrap column The flow-through fraction was collected and concentrated to about 2 mg/mL using Amicon Ultra-15 centrifugal filter units (MWCO 10 kDa). The IKKbKK/RR(701-745) peptide was biotinylated by treatment with a 10-fold molar excess of biotin-NHS at 4° C. overnight. The biotinylated IKKbKK/RR(701-745) was purified by reversed-phase HPLC equipped with a C18 column and stored frozen at −80° C.

[5] = system: NF-κB activation in HEK293(Luc) cells; assay: NF-κB luciferase assay; assay type: cell-based
Procedure: The ability of the bicyclic peptidyl inhibitors to inhibit NF-κB Signaling was analyzed. The ability of peptide 7 to enter the cell and block the intracellular NEMO-IKK interaction was assessed by using HEK293(Luc) cells, which harbor a luciferase gene under the transcriptional control of NF-κB. For the NF-κB Luciferase Assays, culture media was exchanged for DMEM containing 10% FBS and 1% penicillin/streptomycin the day before seeding to remove hygromycin B. HEK293(Luc) cells were seeded in 50 μL of assay medium (DMEM, 10% FBS, and 1% penicillin/streptomycin) in an opaque 96-well microplate (3000 cells per well) and incubated overnight. The peptide inhibitors were added to the cells the next day in 5 μL of assay medium and the plate was incubated at 37° c. for 2 h. After that, 5 μL of assay media containing recombinant TNFα (final concentration 5 ng/mL) was added to the wells. The plate was then returned to the incubator for 4 h at 37° c. Finally, 50 μL of ONE-Step luciferase assay reagent was added to each well and after 10 minutes the luminescence was measured on a Tecan Infinite M1000 Pro microplate reader. Data presented were the mean±SD of at least three independent experiments (n=6 for basal activities).

[6] = system: A2780 cells; assay: MTT cell viability assay, A2780; assay type: cell-based; settings: 72 hours
Procedure: For the MTT cell viability assay, HeLa, HEK293, A2780, OSE or A375 cells were seeded into a 96-well microplate (3000 cells/well) in 100 μl of respective growth media and incubated at 37° c. overnight. The next day, a serial dilution of peptide was added to each well in 10 μL of assay medium. The treated cells were incubated at 37° c. with 5% CO2 for 72 hours. Following compound treatment, 10 μL of MTT stock solution (Roche) was added to each well. After an additional 4 h at 37° C., 100 μL of SDS-HCl solubilizing solution was added to each well and the plate was returned to the incubator overnight at 37° c. A Tecan Infinite M1000 Pro microplate reader was used the following morning to measure the absorbance of the formazan product at 565 nm.

T1 sequence (Q9Y6K9 1-196): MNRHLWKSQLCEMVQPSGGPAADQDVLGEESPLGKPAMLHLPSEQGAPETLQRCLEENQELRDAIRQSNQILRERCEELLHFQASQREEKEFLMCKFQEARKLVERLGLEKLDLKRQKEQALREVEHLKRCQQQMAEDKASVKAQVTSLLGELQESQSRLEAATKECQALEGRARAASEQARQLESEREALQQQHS

CC[C@H](C)[C@H](NC(=O)[C@H](CCCCN)NC(=O)[C@@H](NC(=O)[C@H](CCC(N)=O)NC(=O)[C@@H](N)CCCNC(=N)N)[C@@H](C)CC)C(=O)N[C@@H](Cc1c[nH]c2ccccc12)C(=O)N[C@@H](Cc1ccccc1)C(=O)N[C@@H](CCC(N)=O)C(=O)N[C@@H](CC(N)=O)C(=O)N[C@@H](CCCNC(=N)N)C(=O)N[C@@H](CCCNC(=N)N)C(=O)N[C@@H](CCSC)C(=O)N[C@@H](CCCCN)C(=O)N[C@@H](Cc1c[nH]c2ccccc12)C(=O)N[C@@H](CCCCN)C(=O)N[C@@H](CCCCN)C(=O)NCC(=O)NCC(=O)N[C@H](C(=O)N[C@@H](C)C(=O)N[C@@H](CC(C)C)C(=O)N[C@@H](CC(=O)O)C(=O)N[C@@H](Cc1c[nH]c2ccccc12)C(=O)N[C@@H](CO)C(=O)N[C@@H](Cc1c[nH]c2ccccc12)C(=O)N[C@@H](CC(C)C)C(=O)N[C@@H](CCC(N)=O)C(=O)N[C@H](C(=O)N[C@@H](CCC(=O)O)C(=O)O)[C@@H](C)O)[C@@H](C)O [Peptide 1, reference compound]
half-life [1]: ~20 min
Permeability (%), cellular uptake efficiency [2]: 35%

CC[C@H](C)[C@@H]1NC(=O)[C@H](Cc2c[nH]c3ccccc23)NC(=O)CNC(=O)c2cc3cc(c2)C(=O)NC[C@H](NC(=O)[C@H](Cc2ccc(O)cc2)NC1=O)C(=O)N[C@@H](Cc1ccccc1)C(=O)N[C@@H](Cc1ccc2ccccc2c1)C(=O)N[C@@H](CCCNC(=N)N)C(=O)N[C@@H](CCCNC(=N)N)C(=O)N[C@@H](CCCNC(=N)N)C(=O)N[C@H](C(=O)NCCC(=O)NCCC(=O)N[C@@H](CCCCN)C(=O)O)CNC3=O [Peptide 2, Tm(GWIY)Δ(FΦRRRΔ)-BBK] (GWIY[Dap]F[2Nal]RRR[Dap][βAla][βAla]K-OH; linker N-5-11 via Trimesoyl; C-terminus assumed)
Permeability (%), cellular uptake efficiency [2]: 76%

CC[C@H](C)[C@@H]1NC(=O)[C@H](Cc2c[nH]c3ccccc23)NC(=O)CNC(=O)c2cc3cc(c2)C(=O)NC[C@H](NC(=O)[C@H](Cc2ccc(O)cc2)NC1=O)C(=O)N[C@@H](Cc1ccccc1)C(=O)N[C@@H](Cc1ccc2ccccc2c1)C(=O)N[C@@H](CCCNC(=N)N)C(=O)N[C@@H](CCCNC(=N)N)C(=O)N[C@@H](CCCNC(=N)N)C(=O)N[C@@H](CCCNC(=N)N)C(=O)N[C@H](C(=O)NCCC(=O)NCCC(=O)N[C@@H](CCCCN)C(=O)O)CNC3=O [Peptide 3, Tm(GWIY)Δ(FΦRRRRΔ)-BBK] (GWIY[Dap]F[2Nal]RRRR[Dap][βAla][βAla]K-OH; linker N-5-12 via Trimesoyl; C-terminus assumed)
cellular entry efficiency (in words) [3]: slightly decreased the cellular entry efficiency

CC[C@H](C)[C@@H]1NC(=O)[C@H](Cc2c[nH]c3ccccc23)NC(=O)CNC(=O)c2cc3cc(c2)C(=O)NC[C@H](NC(=O)[C@H](Cc2ccc(O)cc2)NC1=O)C(=O)N[C@@H](Cc1ccccc1)C(=O)N[C@@H](Cc1ccc2ccccc2c1)C(=O)N[C@@H](CCCNC(=N)N)C(=O)N[C@@H](CCCNC(=N)N)C(=O)N[C@@H](CCCNC(=N)N)C(=O)N[C@H](C(=O)N[C@@H](CCCNC(=N)N)C(=O)NCCC(=O)N[C@@H](CCCCN)C(=O)O)CNC3=O [Peptide 4, Tm(GWIY)Δ(FΦRRRΔ)-RBK] (GWIY[Dap]F[2Nal]RRR[Dap]R[βAla]K-OH; linker N-5-11 via Trimesoyl; C-terminus assumed)
Permeability (%), cellular uptake efficiency [2]: 71%
cellular entry efficiency (in words) [2]: slightly decreased the cellular entry efficiency

CC[C@H](C)[C@@H]1NC(=O)[C@H](Cc2c[nH]c3ccccc23)NC(=O)CNC(=O)c2cc3cc(c2)C(=O)NC[C@@H](C(=O)N[C@H](CCCNC(=N)N)C(=O)NCCC(=O)N[C@@H](CCCCN)C(=O)O)NC(=O)[C@H](CCCNC(=N)N)NC(=O)[C@H](CCCNC(=N)N)NC(=O)[C@H](CCCNC(=N)N)NC(=O)[C@H](Cc2ccc4ccccc4c2)NC(=O)[C@H](Cc2ccccc2)NC(=O)[C@H](CNC3=O)NC(=O)[C@H](Cc2ccc(O)cc2)NC1=O [Peptide 5, Tm(GWIY)Δ(FΦRRRΔ)-rBK] (GWIY[Dap]F[2Nal]RRR[Dap][dR][βAla]K-OH; linker N-5-11 via Trimesoyl; C-terminus assumed)
Permeability (%), cellular uptake efficiency [2]: 71%
cellular entry efficiency (in words) [2]: slightly decreased the cellular entry efficiency

CC[C@H](C)[C@@H]1NC(=O)[C@H](Cc2c[nH]c3ccccc23)NC(=O)CNC(=O)c2cc3cc(c2)C(=O)NC[C@H](NC(=O)[C@H](Cc2ccc(O)cc2)NC1=O)C(=O)N[C@@H](Cc1ccccc1)C(=O)N[C@@H](Cc1ccc2ccccc2c1)C(=O)N[C@@H](CCCNC(=N)N)C(=O)N[C@H](CCCNC(=N)N)C(=O)N[C@@H](CCCNC(=N)N)C(=O)N[C@H](C(=O)NCCC(=O)NCCC(=O)N[C@@H](CCCCN)C(=O)O)CNC3=O [Peptide 6, Tm(GWIY)Δ(FΦRrRΔ)-BBK] (GWIY[Dap]F[2Nal]R[dR]R[Dap][βAla][βAla]K-OH; linker N-5-11 via Trimesoyl; C-terminus assumed)
Permeability (%), cellular uptake efficiency [2]: 322%
increase of uptake efficiency ([2]; second arginine replaced with D-arginine, versus peptide 2): 4.2 fold

CC[C@H](C)[C@@H]1NC(=O)[C@H](Cc2c[nH]c3ccccc23)NC(=O)CNC(=O)c2cc3cc(c2)C(=O)NC[C@@H](C(=O)NCCC(=O)NCCC(=O)N[C@@H](CCCCN)C(=O)O)NC(=O)[C@H](CCCNC(=N)N)NC(=O)[C@@H](CCCNC(=N)N)NC(=O)[C@H](CCCNC(=N)N)NC(=O)[C@H](Cc2ccc4ccccc4c2)NC(=O)[C@H](C)NC(=O)[C@H](CNC3=O)NC(=O)[C@H](C)NC(=O)[C@H](Cc2ccc(O)cc2)NC1=O [Peptide 15, Tm(GWIYA)Δ(AΦRrRΔ)-BBK] (GWIYA[Dap]A[2Nal]R[dR]R[Dap][βAla][βAla]K-OH; linker N-6-12 via Trimesoyl; C-terminus assumed)
NEMO-binding affinity on Ala substitution (in words) [4]: significantly de-creased the NEMO-binding affinity

CC[C@H](C)[C@@H]1NC(=O)[C@H](Cc2c[nH]c3ccccc23)NC(=O)CNC(=O)c2cc3cc(c2)C(=O)NC[C@@H](C(=O)NCCC(=O)NCCC(=O)N[C@@H](CCCCN)C(=O)O)NC(=O)[C@H](CCCNC(=N)N)NC(=O)[C@@H](CCCNC(=N)N)NC(=O)[C@H](CCCNC(=N)N)NC(=O)[C@H](C)NC(=O)[C@H](Cc2ccccc2)NC(=O)[C@H](CNC3=O)NC(=O)[C@H](C)NC(=O)[C@H](Cc2ccc(O)cc2)NC1=O [Peptide 16, Tm(GWIYA)Δ(FARrRΔ)-BBK] (GWIYA[Dap]FAR[dR]R[Dap][βAla][βAla]K-OH; linker N-6-12 via Trimesoyl; C-terminus assumed)
NEMO-binding affinity on Ala substitution (in words) [4]: significantly de-creased the NEMO-binding affinity

CC[C@H](C)[C@@H]1NC(=O)[C@H](C)NC(=O)CNC(=O)c2cc3cc(c2)C(=O)NC[C@@H](C(=O)NCCC(=O)NCCC(=O)N[C@@H](CCCCN)C(=O)O)NC(=O)[C@H](CCCNC(=N)N)NC(=O)[C@@H](CCCNC(=N)N)NC(=O)[C@H](CCCNC(=N)N)NC(=O)[C@H](Cc2ccc4ccccc4c2)NC(=O)[C@H](Cc2ccccc2)NC(=O)[C@H](CNC3=O)NC(=O)[C@H](C)NC(=O)[C@H](C)NC1=O [Peptide 20, Tm(GAIAA)Δ(FΦRrRΔ)-BBK] (GAIAA[Dap]F[2Nal]R[dR]R[Dap][βAla][βAla]K-OH; linker N-6-12 via Trimesoyl; C-terminus assumed)
effect on TNFα-induced luciferase activity (in words) [5]: decreased the luciferase activity only at high concentrations
fold lower NEMO-binding affinity / potency [4]: 16 fold
activity on A2780 viability (in words) [6]: much less active than peptide 7

C[C@@H]1NC(=O)CNC(=O)c2cc3cc(c2)C(=O)NC[C@@H](C(=O)NCCC(=O)NCCC(=O)N[C@@H](CCCCN)C(=O)O)NC(=O)[C@H](CCCNC(=N)N)NC(=O)[C@@H](CCCNC(=N)N)NC(=O)[C@H](CCCNC(=N)N)NC(=O)[C@H](Cc2ccc4ccccc4c2)NC(=O)[C@H](Cc2ccccc2)NC(=O)[C@H](CNC3=O)NC(=O)[C@H](C)NC(=O)[C@H](C)NC(=O)[C@H](C)NC1=O [Peptide 21, Tm(GAAAA)Δ(FΦRrRΔ)-BBK] (GAAAA[Dap]F[2Nal]R[dR]R[Dap][βAla][βAla]K-OH; linker N-6-12 via Trimesoyl; C-terminus assumed)
effect on TNFα-induced luciferase activity (in words) [5]: decreased the luciferase activity only at high concentrations
fold lower NEMO-binding affinity / potency [4]: > 100 fold
activity on A2780 viability (in words) [6]: much less active than peptide 7
